Non-standard residues stand in square brackets, D forms with d. Residues, ends and D or L forms follow the SMILES beside them. *: point of attachment. 1Nal = N[C@@H](Cc1cccc2ccccc12)C(=O)O; Palmitoyl = CCCCCCCCCCCCCCCC(=O)*; Myristoyl = CCCCCCCCCCCCCC(=O)*; Cha = N[C@@H](CC1CCCCC1)C(=O)O; Decanoyl = CCCCCCCCCC(=O)*; Octanoyl = CCCCCCCC(=O)*; Dap = NC[C@H](N)C(=O)O; Sar = CNCC(=O)O
How the values were obtained:
[1] = Pharmacokinetics in vivo after SC administration to mice; conditions: SC 5 mg/kg
Description: Mice were housed at a temperature 22±2° C. under a daily cycle of 12/12 h light/dark (light from 6:00) with free access to water and a standard chow diet St-1 (Mlýn Kocanda, Praha, Czech Republic).
4, 6, 14 and 18 at a dose of 5 mg/kg of body weight (0.2 ml/mouse, n=4). Blood was collected from tails before injection and 0.5, 1, 2, 4, 8, 16 and 24 h after injection. Plasma was separated and stored at −20° C.

human GHS-R1a receptor = molecular target: T1, human GHS-R1a receptor (Homo sapiens, UniProt Q92847); assay: Competitive binding studies (displacement of 125I-ghrelin); conditions: for % of ghrelin binding: relative to ghrelin = 100
T1 construct: purchased Multispan, Hayward, Calif., USA; host or cells: HEK293T cells, isolated plasma membranes
T1 sequence (Q92847 whole entry): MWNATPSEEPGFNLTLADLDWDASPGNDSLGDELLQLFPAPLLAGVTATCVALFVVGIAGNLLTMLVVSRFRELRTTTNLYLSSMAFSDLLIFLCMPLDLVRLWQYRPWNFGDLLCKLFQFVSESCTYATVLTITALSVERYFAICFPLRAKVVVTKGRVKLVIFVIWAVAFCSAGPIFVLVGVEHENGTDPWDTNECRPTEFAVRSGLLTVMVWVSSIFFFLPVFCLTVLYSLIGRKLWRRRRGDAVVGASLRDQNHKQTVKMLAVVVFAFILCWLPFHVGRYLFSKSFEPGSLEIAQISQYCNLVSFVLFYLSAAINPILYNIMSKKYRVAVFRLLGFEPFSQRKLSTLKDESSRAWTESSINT
Description: Isolated plasma membranes from the HEK293T cells with transfected human GHS-R1a receptor (Multispan, Hayward, Calif., USA) were used. […] Experiments were carried out in duplicates at least three times. Competitive binding curves were plotted using GraphPad Prism Software (San Diego, Calif., USA) while comparing the best fit for single binding sites models.

fed C57BL/6 male mice = assay: Effect of SC administered ghrelin analogs on food intake; format: in vivo; conditions: for maximal effect at 5 mg/kg on food intake: SC 5 mg/kg, evaluated 480 min after administration; for ED50 (250 min after injection), effect on food intake: SC, fed mice
Description: All of the experiments followed the ethical guidelines for animal experiments and Czech Republic law 246/1992 and were approved by the committee for experiments with laboratory animals of the Academy of Sciences of the Czech Republic. Male C57BL/6 mice (Charles River, Germany) were housed at a temperature 22±2° C. under a daily cycle of 12/12 h light/dark (light from 6:00) with free access to water and a standard chow diet St-1 which contained […] of calories from protein, fat and carbohydrate, respectively, and its energy content was 3.4 kcal/g (Mlýn Kocanda, Praha, Czech Republic). Mice were placed into separate cages for one week before experiment, they had free access to water and food pellets. Closely before the experiment, the food pellets were removed from the cages. […] 15 min after the injection, mice were given preweighed food pellets. Food intake was monitored for 8-10 hours at 30-min intervals. Mice had free access to water during the experiment. Experiments were performed at least twice for each tested compound, each experimental group had at least 5 mice.
Data from food intake experiments were analyzed by one-way ANOVA followed by Dunnett's post-hoc test using GraphPad Prism Software (San Diego, Calif., USA), P<0.05 was considered statistically significant. ED50 values were calculated using GraphPad Prism Software as the dose of the tested compound required to elicit half-maximal effect at 250 min after administration of the corresponding compound.
Food intake was monitored for […] after administration of the compounds. ED50 values were determined 250 min after administration. Maximal effect on food intake was evaluated […] after administration of the compounds at a dose of 5 mg/kg of body weight. NT—not tested.

[2] = system: rat model of subtotal nephrectomy; assay: Rat model of renal cachexia (subtotal nephrectomy, SNx); format: in vivo; conditions: SNx rats, 15-day SC 5 mg/kg
Description: Male F344 rats (Harlan, Italy) were housed at a temperature of 22±2° C. under a daily cycle of 12/12 h light/dark (light from 6:00) with free access to water and a standard chow diet St-1 (Mlýn Kocanda, Praha, Czech Republic).
To induce renal dysfunction, 5/6 nephrectomy was performed to anesthetized 8-week-old rats (SNx group, n=14); the control group was sham-operated (Sham group, n=6). Starting from the following day, the rats were SC injected with saline or ghrelin analog no. 2 (5 mg/kg of body weight, dissolved in saline) for 15 days. Food intake and body weight of the rats was monitored every day. At the end of the experiment, blood was collected for determination of pro-inflammatory cytokines using the Milliplex MAP Rat Cytokine/Chemokine Magnetic Bead Panel (Merck-Millipore, St. Charles, Mo., USA).

Row | Compound | % of ghrelin binding (human GHS-R1a receptor) | maximal effect at 5 mg/kg on food intake (fed C57BL/6 male mice) | ED50 (250 min after injection), effect on food intake (fed C57BL/6 male mice) | further results
1 | CCCCCCCCCCCCCC(=O)NC[C@H](NC(=O)[C@H](CO)NC(=O)CNC)C(=O)N[C@@H](Cc1ccccc1)C(=O)N[C@@H](CC(C)C)C(=O)N[C@@H](CO)C(=O)N1CCC[C@H]1C(=O)N[C@@H](CCC(=O)O)C(=O)N[C@@H](Cc1c[nH]cn1)C(=O)N[C@@H](CCC(N)=O)C(=O)N[C@@H](CCCCN)C(=O)N[C@@H](C)C(=O)N[C@@H](CCC(N)=O)C(=O)N[C@@H](CCC(N)=O)C(=O)N[C@@H](CCCNC(=N)N)C(=O)N[C@@H](CCCCN)C(=O)N[C@@H](CCC(=O)O)C(=O)N[C@@H](CO)C(=O)O [Analog 18] (H-[Sar]S[Dap](Myristoyl)FLSPEHQKAQQRKES-OH) |  |  |  | stability in vivo compared with ghrelin or Dpr^3ghrelin [1]: significantly more stable than ghrelin or Dpr^3ghrelin
2 | CCCCCCCCCCCCCCCC(=O)NCCCC[C@H](NC(=O)[C@H](C)NC(=O)[C@@H]1CCCN1C(=O)[C@@H]1CCCN1C(=O)[C@H](CCCCN)NC(=O)[C@H](CCCCN)NC(=O)[C@H](CO)NC(=O)[C@H](CCC(=O)O)NC(=O)[C@H](CCCCN)NC(=O)[C@H](CCCNC(=N)N)NC(=O)[C@H](CCC(N)=O)NC(=O)[C@H](CCC(N)=O)NC(=O)[C@H](C)NC(=O)[C@H](CCCCN)NC(=O)[C@H](CCC(N)=O)NC(=O)[C@H](Cc1c[nH]cn1)NC(=O)[C@H](CCC(=O)O)NC(=O)[C@@H]1CCCN1C(=O)[C@H](CO)NC(=O)[C@H](CC(C)C)NC(=O)[C@H](Cc1cccc2ccccc12)NC(=O)[C@H](CNC(=O)CCCCCCC)NC(=O)[C@H](CO)NC(=O)CNC)C(=O)N[C@@H](CC(C)C)C(=O)N[C@@H](CCC(N)=O)C(=O)N1CCC[C@H]1C(=O)N[C@@H](CCCNC(=N)N)C(=O)O [Analog 9] (H-[Sar]S[Dap](Octanoyl)[1Nal]LSPEHQKAQQRKESKKPPAK(Palmitoyl)LQPR-OH; N-terminus and C-terminus assumed) | 5% | 171.1 % of Dpr^3ghr |  | 
3 | CCCCCCCC(=O)NC[C@H](NC(=O)[C@H](CO)NC(=O)CN)C(=O)N[C@@H](Cc1ccccc1)C(=O)N[C@@H](CC(C)C)C(=O)N[C@@H](CO)C(=O)N1CCC[C@H]1C(=O)N[C@@H](CCC(=O)O)C(=O)N[C@@H](Cc1c[nH]cn1)C(=O)N[C@@H](CCC(N)=O)C(=O)N[C@@H](CCCCN)C(=O)N[C@@H](C)C(=O)N[C@@H](CCC(N)=O)C(=O)N[C@@H](CCC(N)=O)C(=O)N[C@@H](CCCNC(=N)N)C(=O)N[C@@H](CCCCN)C(=O)N[C@@H](CCC(=O)O)C(=O)N[C@@H](CO)C(=O)N[C@@H](CCCCN)C(=O)N[C@@H](CCCCN)C(=O)N1CCC[C@H]1C(=O)N1CCC[C@H]1C(=O)N[C@@H](C)C(=O)N[C@@H](CCCCN)C(=O)N[C@@H](CC(C)C)C(=O)N[C@@H](CCC(N)=O)C(=O)N1CCC[C@H]1C(=O)N[C@@H](CCCNC(=N)N)C(=O)O [Dpr^3ghrelin, reference compound] | 169% | 100 % of Dpr^3ghr | 0.82 mg/kg | 
4 | CCCCCCCC(=O)NC[C@H](NC(=O)[C@H](CO)NC(=O)CNC)C(=O)N[C@@H](Cc1ccc(Cl)c(Cl)c1)C(=O)N[C@@H](CC(C)C)C(=O)N[C@@H](CO)C(=O)N1CCC[C@H]1C(=O)N[C@@H](CCC(=O)O)C(=O)N[C@@H](Cc1c[nH]cn1)C(=O)N[C@@H](CCC(N)=O)C(=O)N[C@@H](CCCCN)C(=O)N[C@@H](C)C(=O)N[C@@H](CCC(N)=O)C(=O)N[C@@H](CCC(N)=O)C(=O)N[C@@H](CCCNC(=N)N)C(=O)N[C@@H](CCCCN)C(=O)N[C@@H](CCC(=O)O)C(=O)N[C@@H](CO)C(=O)N[C@@H](CCCCN)C(=O)N[C@@H](CCCCN)C(=O)N1CCC[C@H]1C(=O)N1CCC[C@H]1C(=O)N[C@@H](C)C(=O)N[C@@H](CCCCN)C(=O)N[C@@H](CC(C)C)C(=O)N[C@@H](CCC(N)=O)C(=O)N1CCC[C@H]1C(=O)N[C@@H](CCCNC(=N)N)C(=O)O [Analog 13] | 47% | 92.9 % of Dpr^3ghr |  | 
5 | (Sar)S(Dpr-N-myr)FLSPEHQKAQQRKESKKPPAKLQPR (XSXFLSPEHQKAQQRKESKKPPAKLQPR; Sar N-terminus; myristoylated Dpr; ghrelin analog) [Analog 2] |  |  |  | IL-1α in blood plasma [2]: 392.3 ± 49.5 pg/mL; IL-2 in blood plasma [2]: 28.1 ± 9.3 pg/mL; IL-6 in blood plasma [2]: 337.3 ± 62.8 pg/mL; IL-10 in blood plasma [2]: 150.7 ± 6.2 pg/mL; TNF-α in blood plasma [2]: 32.6 ± 3.8 pg/mL
6 | CCCCCCCCCC(=O)NC[C@H](NC(=O)[C@H](CO)NC(=O)CNC)C(=O)N[C@@H](Cc1cccc2ccccc12)C(=O)N[C@@H](CC(C)C)C(=O)N[C@@H](CO)C(=O)N1CCC[C@H]1C(=O)N[C@@H](CCC(=O)O)C(=O)N[C@@H](Cc1c[nH]cn1)C(=O)N[C@@H](CCC(N)=O)C(=O)N[C@@H](CCCCN)C(=O)N[C@@H](C)C(=O)N[C@@H](CCC(N)=O)C(=O)N[C@@H](CCC(N)=O)C(=O)N[C@@H](CCCNC(=N)N)C(=O)N[C@@H](CCCCN)C(=O)N[C@@H](CCC(=O)O)C(=O)N[C@@H](CO)C(=O)N[C@@H](CCCCN)C(=O)N[C@@H](CCCCN)C(=O)N1CCC[C@H]1C(=O)N1CCC[C@H]1C(=O)N[C@@H](C)C(=O)N[C@@H](CCCCN)C(=O)N[C@@H](CC(C)C)C(=O)N[C@@H](CCC(N)=O)C(=O)N1CCC[C@H]1C(=O)N[C@@H](CCCNC(=N)N)C(=O)O [Analog 3] (H-[Sar]S[Dap](Decanoyl)[1Nal]LSPEHQKAQQRKESKKPPAKLQPR-OH; N-terminus and C-terminus assumed) | 176% | 220.3 % of Dpr^3ghr | 0.64 mg/kg | affinity for GHS-R1a compared with ghrelin (human GHS-R1a receptor; in words): higher affinities for GHS-R1a than ghrelin
7 | CCCCCCCCCCCCCC(=O)NC[C@H](NC(=O)[C@H](CO)NC(=O)CNC)C(=O)N[C@@H](CC1CCCCC1)C(=O)N[C@@H](CC(C)C)C(=O)N[C@@H](CO)C(=O)N1CCC[C@H]1C(=O)N[C@@H](CCC(=O)O)C(=O)N[C@@H](Cc1c[nH]cn1)C(=O)N[C@@H](CCC(N)=O)C(=O)N[C@@H](CCCCN)C(=O)N[C@@H](C)C(=O)N[C@@H](CCC(N)=O)C(=O)N[C@@H](CCC(N)=O)C(=O)N[C@@H](CCCNC(=N)N)C(=O)N[C@@H](CCCCN)C(=O)N[C@@H](CCC(=O)O)C(=O)N[C@@H](CO)C(=O)N[C@@H](CCCCN)C(=O)N[C@@H](CCCCN)C(=O)N1CCC[C@H]1C(=O)N1CCC[C@H]1C(=O)N[C@@H](C)C(=O)N[C@@H](CCCCN)C(=O)N[C@@H](CC(C)C)C(=O)N[C@@H](CCC(N)=O)C(=O)N1CCC[C@H]1C(=O)N[C@@H](CCCNC(=N)N)C(=O)O [Analog 6] (H-[Sar]S[Dap](Myristoyl)[Cha]LSPEHQKAQQRKESKKPPAKLQPR-OH; N-terminus and C-terminus assumed) | 18% | 276.2 % of Dpr^3ghr | 3.05 mg/kg | stability in vivo compared with ghrelin or Dpr^3ghrelin [1]: significantly more stable than ghrelin or Dpr^3ghrelin; half-life ([1]; male, C57BL/6, mouse, plasma): 7 h

From patent US20170044230A1 (USTAV ORGANICKE CHEMIE A BIOCHEMIE AV CR, V.V.I., priority 2014, published 2017)
